Results reported in ChEMBL document CHEMBL2203188, “Preparation of N-(Hetero)cyclyl Benzamides as Inhibitors of the Activity of Complex III of the Mitochondrial Electron Transport Chain: Patent Highlight” (ACS Med Chem Lett, 2012).

Test: Inhibition of electron transport protein complex 3 in glioma initiating cells assessed as increase in cell death at 50 uM after 48 hrs relative to control
Assay type: cell-based

`O=CNc1cccc(C(=O)NC2CCCCCCCC2)c1O` showed a fold change (FC) of over 1.2.
